Reference: PubChem BioAssay (NCI)
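Briefly, cells in 96-well plates were exposed to five compound concentrations for 48 h, and endpoints were estimated by linear interpolation. GI50 is the concentration that inhibits growth by half. The concentration for full growth arrest is given as TGI.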

What was measured:
Assay in all cases: DTP human tumour cell line panel, 48 h
786-0 renal = tested on: 786-0 renal
A498 renal = tested on: A498 renal
A549 NSCLC = tested on: A549 NSCLC
ACHN renal = tested on: ACHN renal
BT-549 breast = tested on: BT-549 breast
CAKI-1 renal = tested on: CAKI-1 renal
CCRF-CEM leukemia = tested on: CCRF-CEM leukemia
COLO 205 colon = tested on: COLO 205 colon
DU-145 prostate = tested on: DU-145 prostate
HCC-2998 colon = tested on: HCC-2998 colon
HCT-116 colon = tested on: HCT-116 colon
HCT-15 colon = tested on: HCT-15 colon
HL-60(TB) leukemia = tested on: HL-60(TB) leukemia
HOP-62 NSCLC = tested on: HOP-62 NSCLC
HOP-92 NSCLC = tested on: HOP-92 NSCLC
HS 578T breast = tested on: HS 578T breast
HT29 colon = tested on: HT29 colon
IGROV1 ovarian = tested on: IGROV1 ovarian
K-562 leukemia = tested on: K-562 leukemia
KM12 colon = tested on: KM12 colon
LOX IMVI melanoma = tested on: LOX IMVI melanoma
M14 melanoma = tested on: M14 melanoma
MALME-3M melanoma = tested on: MALME-3M melanoma
MCF7 breast = tested on: MCF7 breast
MDA-MB-231 breast = tested on: MDA-MB-231 breast
MDA-MB-435 = tested on: MDA-MB-435
MOLT-4 leukemia = tested on: MOLT-4 leukemia
NCI-H226 lung = tested on: NCI-H226 lung
NCI-H23 lung = tested on: NCI-H23 lung
NCI-H460 lung = tested on: NCI-H460 lung
NCI-H522 lung = tested on: NCI-H522 lung
NCI/ADR-RES ovarian = tested on: NCI/ADR-RES ovarian
OVCAR-3 ovarian = tested on: OVCAR-3 ovarian
OVCAR-4 ovarian = tested on: OVCAR-4 ovarian
OVCAR-5 ovarian = tested on: OVCAR-5 ovarian
OVCAR-8 ovarian = tested on: OVCAR-8 ovarian
PC-3 prostate = tested on: PC-3 prostate
RPMI-8226 leukemia = tested on: RPMI-8226 leukemia
RXF 393 renal = tested on: RXF 393 renal
SF-268 CNS = tested on: SF-268 CNS
SF-295 CNS = tested on: SF-295 CNS
SF-539 CNS = tested on: SF-539 CNS
SK-MEL-2 melanoma = tested on: SK-MEL-2 melanoma
SK-MEL-28 melanoma = tested on: SK-MEL-28 melanoma
SK-MEL-5 melanoma = tested on: SK-MEL-5 melanoma
SK-OV-3 ovarian = tested on: SK-OV-3 ovarian
SN12C renal = tested on: SN12C renal
SNB-19 CNS = tested on: SNB-19 CNS
SNB-75 CNS = tested on: SNB-75 CNS
SW-620 colon = tested on: SW-620 colon
T-47D breast = tested on: T-47D breast
TK-10 renal = tested on: TK-10 renal
U251 CNS = tested on: U251 CNS
UACC-257 melanoma = tested on: UACC-257 melanoma
UACC-62 melanoma = tested on: UACC-62 melanoma
UO-31 renal = tested on: UO-31 renal

Cn1c([N+](=O)[O-])cnc1/C=C1\Oc2ccc(Br)cc2C1=O showed a GI50 (786-0 renal) of 557 nM, a TGI (786-0 renal) of 2070 nM and a GI50 (A498 renal) of 1720 nM. It also gave a TGI (A498 renal) of 4670 nM, a GI50 (A549 NSCLC) of 927 nM and a TGI (A549 NSCLC) of 5200 nM. The GI50 (ACHN renal) was 212 nM, the TGI (ACHN renal) was 585 nM and the GI50 (BT-549 breast) was 715 nM. The TGI (BT-549 breast) was 4760 nM, the GI50 (CAKI-1 renal) was 277 nM and the TGI (CAKI-1 renal) was 950 nM. It also gave a GI50 (CCRF-CEM leukemia) of 200 nM, a TGI (CCRF-CEM leukemia) of 706 nM and a GI50 (COLO 205 colon) of 925 nM. The TGI (COLO 205 colon) was 3170 nM, the GI50 (DU-145 prostate) was 338 nM and the TGI (DU-145 prostate) was 933 nM. The GI50 (HCC-2998 colon) was 995 nM, the TGI (HCC-2998 colon) was 3620 nM and the GI50 (HCT-116 colon) was 179 nM. The TGI (HCT-116 colon) was 652 nM, the GI50 (HCT-15 colon) was 193 nM and the TGI (HCT-15 colon) was 657 nM. It also gave a GI50 (HL-60(TB) leukemia) of 334 nM, a TGI (HL-60(TB) leukemia) of 1570 nM and a GI50 (HOP-62 NSCLC) of 1140 nM. The TGI (HOP-62 NSCLC) was 3950 nM, the GI50 (HOP-92 NSCLC) was 369 nM and the TGI (HOP-92 NSCLC) was 2580 nM. The GI50 (HS 578T breast) was 890 nM, the TGI (HS 578T breast) was over 23400 nM and the GI50 (HT29 colon) was 231 nM. The TGI (HT29 colon) was 622 nM, the GI50 (IGROV1 ovarian) was 469 nM and the GI50 (K-562 leukemia) was 400 nM. It also gave a TGI (K-562 leukemia) of 3280 nM, a GI50 (KM12 colon) of 312 nM and a TGI (KM12 colon) of 957 nM. For the same compound, the GI50 (LOX IMVI melanoma) was 209 nM, the TGI (LOX IMVI melanoma) was 543 nM and the GI50 (M14 melanoma) was 445 nM. For the same compound, the TGI (M14 melanoma) was 2100 nM, the GI50 (MALME-3M melanoma) was 683 nM and the TGI (MALME-3M melanoma) was 2210 nM. It also gave a GI50 (MCF7 breast) of 330 nM, a TGI (MCF7 breast) of 7970 nM and a GI50 (MDA-MB-231 breast) of 374 nM. The TGI (MDA-MB-231 breast) was 4810 nM, the GI50 (MDA-MB-435) was 253 nM and the TGI (MDA-MB-435) was 731 nM. The GI50 (MOLT-4 leukemia) was 316 nM, the TGI (MOLT-4 leukemia) was 7300 nM and the GI50 (NCI-H226 lung) was 1380 nM. The TGI (NCI-H226 lung) was 4890 nM, the GI50 (NCI-H23 lung) was 432 nM and the TGI (NCI-H23 lung) was 2350 nM. It also gave a GI50 (NCI-H460 lung) of 253 nM, a TGI (NCI-H460 lung) of 654 nM and a GI50 (NCI-H522 lung) of 357 nM. The TGI (NCI-H522 lung) was 1040 nM, the GI50 (NCI/ADR-RES ovarian) was 609 nM and the TGI (NCI/ADR-RES ovarian) was 74400 nM. It also gave a GI50 (OVCAR-3 ovarian) of 276 nM, a TGI (OVCAR-3 ovarian) of 690 nM and a GI50 (OVCAR-4 ovarian) of 1580 nM. The TGI (OVCAR-4 ovarian) was over 20200 nM, the GI50 (OVCAR-5 ovarian) was 1480 nM and the TGI (OVCAR-5 ovarian) was 5640 nM. The GI50 (OVCAR-8 ovarian) was 266 nM, the GI50 (PC-3 prostate) was 471 nM and the GI50 (RPMI-8226 leukemia) was 352 nM. For the same compound, the TGI (RPMI-8226 leukemia) was 2870 nM, the GI50 (RXF 393 renal) was 416 nM and the TGI (RXF 393 renal) was 1940 nM. The GI50 (SF-268 CNS) was 299 nM, the TGI (SF-268 CNS) was 933 nM and the GI50 (SF-295 CNS) was 1700 nM. For the same compound, the TGI (SF-295 CNS) was 7850 nM, the GI50 (SF-539 CNS) was 922 nM and the TGI (SF-539 CNS) was 3280 nM. It also gave a GI50 (SK-MEL-2 melanoma) of 445 nM, a TGI (SK-MEL-2 melanoma) of 1960 nM and a GI50 (SK-MEL-28 melanoma) of 532 nM. The TGI (SK-MEL-28 melanoma) was 2870 nM, the GI50 (SK-MEL-5 melanoma) was 213 nM and the TGI (SK-MEL-5 melanoma) was 586 nM. The GI50 (SK-OV-3 ovarian) was 1450 nM, the TGI (SK-OV-3 ovarian) was 6080 nM and the GI50 (SN12C renal) was 421 nM. The TGI (SN12C renal) was 4160 nM, the GI50 (SNB-19 CNS) was 1190 nM and the TGI (SNB-19 CNS) was 6170 nM. For the same compound, the GI50 (SNB-75 CNS) was 1040 nM, the TGI (SNB-75 CNS) was 4450 nM and the GI50 (SW-620 colon) was 157 nM. It also gave a TGI (SW-620 colon) of 537 nM, a GI50 (T-47D breast) of 5410 nM and a TGI (T-47D breast) of over 75900 nM. The GI50 (TK-10 renal) was 671 nM, the TGI (TK-10 renal) was 2640 nM and the GI50 (U251 CNS) was 466 nM. The TGI (U251 CNS) was 2540 nM, the GI50 (UACC-257 melanoma) was 854 nM and the TGI (UACC-257 melanoma) was 4070 nM. The GI50 (UACC-62 melanoma) was 993 nM, the TGI (UACC-62 melanoma) was 2680 nM and the GI50 (UO-31 renal) was 240 nM. For the same compound, the TGI (UO-31 renal) was 765 nM.
